One series concerns MOLT-4. Kind of series: Cytotoxicity against MOLT4 cells after 72 hrs by MTT assay. To be noted: Homo sapiens, MOLT-4, 72 h. For orientation: Formazan colour is commonly taken as a measure of viable cells.
Series [1] is described as follows: Cytotoxicity against SKBR3 cells after 72 hrs by MTT assay. It counts as cell-based. The settings on record: Homo sapiens, SK-BR-3, 72 h.
A short description of series [2]: Cytotoxicity against human HA22T cells after 72 hrs by MTT assay. It counts as cell-based.
For series [3], the system named is COLO 205. Briefly: Cytotoxicity against human COLO205 cells after 72 hrs by MTT assay. The format is cell-based. To be noted: COLO 205, 72 h.
In another series the test system is Nucleic Acid. Briefly: Binding affinity to Escherichia coli JM83 pUC19 DNA assessed as DNA intercalation assay. The format is nucleic-acid assay.
Series [4] in a line: Toxicity in ICR mouse. It counts as organism-based. The settings on record: in vivo.
In series [5] the test system is COLO 205. Kind of series: Antitumor activity against human COLO205 cells implanted in SCID mouse at 10 mg/kg injected into tail vein. The format is functional. To be noted: read-out: TGI.

Structures are written as SMILES.

Usually IC50 stands for the concentration needed to halve the response being measured. A higher IC50 goes with lower potency.

Turning to `COc1ccc2nc3cc(Cl)ccc3c(NCCCN(CCCNc3c4ccc(Cl)cc4nc4ccc(OC)cc34)Cc3cc(Br)cs3)c2c1`, the IC50 with MOLT-4 came out at 60 nM; in series [1], 700 nM; in series [2], 840 nM; with COLO 205 [3], 720 nM.

For the compound `COc1ccc2nc3cc(Cl)ccc3c(NCCCN(CCCNc3c4ccc(Cl)cc4nc4ccc(OC)cc34)Cc3sccc3C)c2c1`, the IC50 with MOLT-4 is below 10 nM; in series [1] it was 70 nM; in series [2] it was 60 nM; with COLO 205 [3], 10 nM. The SC50 in the series on Nucleic Acid stood at 2 µM.

`COc1ccc2nc3cc(Cl)ccc3c(NCCCCN(CCCNc3c4ccc(Cl)cc4nc4ccc(OC)cc34)Cc3ccoc3)c2c1`: the IC50 with MOLT-4 is 30 nM; in series [1], 710 nM; in series [2], 440 nM; in the series with COLO 205 [3], 320 nM.

Take `COc1ccc2nc3cc(Cl)ccc3c(NCCCN(CCCNc3c4ccc(Cl)cc4nc4ccc(OC)cc34)CCc3ccccc3)c2c1`: the IC50 was below 10 nM in the series with MOLT-4, 680 nM in series [1], 650 nM in series [2] and 700 nM with COLO 205 [3].

Regarding `CCc1ccc(CN(CCCNc2c3ccc(Cl)cc3nc3ccc(OC)cc23)CCCNc2c3ccc(Cl)cc3nc3ccc(OC)cc23)o1`, the IC50 in the series on MOLT-4 was determined as 100 nM; in series [1], 5250 nM; in series [2] it was 3320 nM; in the series with COLO 205 [3], 2560 nM.

Take `COc1ccc2nc3cc(Cl)ccc3c(NCCCCN(CCCNc3c4ccc(Cl)cc4nc4ccc(OC)cc34)Cc3cccs3)c2c1`: the IC50 with MOLT-4 amounted to 40 nM; in series [1], 680 nM; in series [2], 440 nM; in the series with COLO 205 [3] it was 500 nM.

`COc1ccc2nc3cc(Cl)ccc3c(NCCCNCCCNc3c4ccc(Cl)cc4nc4ccc(OC)cc34)c2c1` gave an MTD in series [4] of 10 mg/kg. Besides, the inhibition in vivo at 10 mg/kg in the series with COLO 205 [5] was 80%. The IC50 was below 20 nM in the series on MOLT-4, 770 nM in series [1], 330 nM in series [2] and 410 nM in the series with COLO 205 [3]. Moreover, the SC50 in the series on Nucleic Acid amounted to 4 µM.

In the case of `COc1ccc2nc3cc(Cl)ccc3c(NCCCCN(CCCNc3c4ccc(Cl)cc4nc4ccc(OC)cc34)Cc3ccsc3)c2c1`, the IC50 with MOLT-4 was below 10 nM; in series [1], 990 nM; in series [2], 3590 nM; in the series on COLO 205 [3], 250 nM.

For the compound `COc1cccc(CN(CCCCNc2c3ccc(Cl)cc3nc3ccc(OC)cc23)CCCNc2c3ccc(Cl)cc3nc3ccc(OC)cc23)c1`, the IC50 in the series on MOLT-4 was determined as 710 nM; in series [1], 1300 nM; in series [2], 5660 nM; in the series with COLO 205 [3], 250 nM.

For the compound `COc1cccc2c1C(=O)c1c(O)c3c(c(O)c1C2=O)C[C@@](O)(C(=O)CO)C[C@@H]3O[C@H]1C[C@H](N)[C@H](O)[C@H](C)O1` [DOXORUBICIN], the IC50 is 290 nM in series [1], 310 nM in series [2] and 260 nM in the series with COLO 205 [3]. The SC50 in the series with Nucleic Acid stood at 10 µM.

In the case of `COc1ccc2nc3cc(Cl)ccc3c(NCCCCN(CCCNc3c4ccc(Cl)cc4nc4ccc(OC)cc34)Cc3ccco3)c2c1`, the IC50 in the series with MOLT-4 is 60 nM; in series [1], 5070 nM; in series [2], 4730 nM; with COLO 205 [3], 370 nM.

Take `COc1ccc(CN(CCCCNc2c3ccc(Cl)cc3nc3ccc(OC)cc23)CCCNc2c3ccc(Cl)cc3nc3ccc(OC)cc23)cc1`: the IC50 turned out to be 710 nM with MOLT-4, 860 nM in series [1], 5450 nM in series [2] and 390 nM with COLO 205 [3].

With `COc1ccc2nc3cc(Cl)ccc3c(NCCCN(CCCNc3c4ccc(Cl)cc4nc4ccc(OC)cc34)Cc3cccc(OC)c3OC)c2c1`, the IC50 with MOLT-4 worked out at 10 nM; in series [1], 790 nM; in series [2], 620 nM; with COLO 205 [3], 640 nM. For the same compound, the SC50 with Nucleic Acid turned out to be 2 µM.

Regarding `COc1ccc2nc3cc(Cl)ccc3c(NCCCN(CCCNc3c4ccc(Cl)cc4nc4ccc(OC)cc34)Cc3ccccc3)c2c1`, the IC50 was 700 nM in the series on MOLT-4, 700 nM in series [1], 700 nM in series [2] and 750 nM with COLO 205 [3]. In addition, in the series on Nucleic Acid, the SC50 came to 2 µM.

`COc1ccc2nc3cc(Cl)ccc3c(NCCCN(CCCNc3c4ccc(Cl)cc4nc4ccc(OC)cc34)Cc3ccoc3)c2c1`: in series [4], the MTD came to 10 mg/kg. Besides, the inhibition in vivo at 10 mg/kg in the series with COLO 205 [5] worked out at 24%. Moreover, the IC50 in the series on MOLT-4 came to 10 nM; in series [1], 690 nM; in series [2] it was 360 nM; in the series with COLO 205 [3], 460 nM. For the same compound, the SC50 with Nucleic Acid was determined as 2 µM.

Turning to `CCCCCCN(CCCNc1c2ccc(Cl)cc2nc2ccc(OC)cc12)CCCNc1c2ccc(Cl)cc2nc2ccc(OC)cc12`, the IC50 came to 90 nM in the series on MOLT-4, 6140 nM in series [1], 6950 nM in series [2] and 890 nM in the series on COLO 205 [3].

As to `COc1ccc2nc3cc(Cl)ccc3c(NCCCN(CCCNc3c4ccc(Cl)cc4nc4ccc(OC)cc34)Cc3ccsc3)c2c1`, the IC50 in the series with MOLT-4 worked out at 70 nM; in series [1], 1170 nM; in series [2], 1410 nM; in the series with COLO 205 [3] it was 560 nM.

As for `COc1ccc2nc3cc(Cl)ccc3c(NCCCN(CCCNc3c4ccc(Cl)cc4nc4ccc(OC)cc34)Cc3ccc(Br)s3)c2c1`, the IC50 in the series on MOLT-4 was below 10 nM; in series [1] it was 5800 nM; in series [2], 1150 nM; in the series with COLO 205 [3] it was 850 nM. Moreover, in the series with Nucleic Acid, the SC50 is above 20 µM.

For `COc1ccc2nc3cc(Cl)ccc3c(NCCCN(CCCNc3c4ccc(Cl)cc4nc4ccc(OC)cc34)CC3CC3)c2c1`, the IC50 is below 10 nM with MOLT-4, 820 nM in series [1], 480 nM in series [2] and 1270 nM in the series on COLO 205 [3]. Besides, the SC50 in the series on Nucleic Acid was 2 µM.

As to `COc1ccc2nc3cc(Cl)ccc3c(NCCCN(CCCNc3c4ccc(Cl)cc4nc4ccc(OC)cc34)CC3COC(C)(C)O3)c2c1` (stereo not given), the IC50 in the series with MOLT-4 was below 10 nM; in series [1], 6610 nM; in series [2] it was 3430 nM; in the series with COLO 205 [3], 5600 nM.

As for `COc1ccc2nc3cc(Cl)ccc3c(NCCCCN(CCCNc3c4ccc(Cl)cc4nc4ccc(OC)cc34)CC3CC3)c2c1`, the IC50 is below 10 nM in the series on MOLT-4, 720 nM in series [1], 510 nM in series [2] and 10 nM with COLO 205 [3]. Further, the SC50 in the series with Nucleic Acid was found to be 2 µM.

As for `COc1ccc2nc3cc(Cl)ccc3c(NCCCN(CCCNc3c4ccc(Cl)cc4nc4ccc(OC)cc34)Cc3ccc(Br)o3)c2c1`, the IC50 was below 10 nM in the series with MOLT-4, 4240 nM in series [1], 1110 nM in series [2] and 410 nM in the series with COLO 205 [3]. In addition, the SC50 with Nucleic Acid was above 20 µM.

As to `CCCN(CCCNc1c2ccc(Cl)cc2nc2ccc(OC)cc12)CCCNc1c2ccc(Cl)cc2nc2ccc(OC)cc12`, the IC50 was below 20 nM with MOLT-4, 5780 nM in series [1], 5980 nM in series [2] and 1460 nM in the series with COLO 205 [3]. For the same compound, the SC50 with Nucleic Acid was 2 µM.

On to `COc1ccc2nc3cc(Cl)ccc3c(NCCCN(CCCNc3c4ccc(Cl)cc4nc4ccc(OC)cc34)Cc3cccnc3)c2c1`, for which the IC50 in the series on MOLT-4 was below 10 nM; in series [1], 640 nM; in series [2], 740 nM; in the series on COLO 205 [3] it was 500 nM.

In the case of `COc1ccc2nc3cc(Cl)ccc3c(NCCCN(CCCNc3c4ccc(Cl)cc4nc4ccc(OC)cc34)CC3OC(C)(C)OC3C3COC(C)(C)O3)c2c1` (stereo not given), the half-inhibitory concentration (IC50) came to 60 nM with MOLT-4, 4730 nM in series [1], 4680 nM in series [2] and 2190 nM with COLO 205 [3].

As for `COc1ccc2nc3cc(Cl)ccc3c(NCCCN(CCCNc3c4ccc(Cl)cc4nc4ccc(OC)cc34)Cc3cc(OC)c(OC)c(OC)c3)c2c1`, the IC50 with MOLT-4 is 60 nM; in series [1] it was 5040 nM; in series [2], 4420 nM; with COLO 205 [3] it was 4500 nM.

`COc1ccc2nc3cc(Cl)ccc3c(NCCCCNCCCNc3c4ccc(Cl)cc4nc4ccc(OC)cc34)c2c1`: the IC50 in the series with MOLT-4 was below 20 nM; in series [1] it was 50 nM; in series [2], 330 nM; with COLO 205 [3], 130 nM. In addition, the SC50 in the series with Nucleic Acid was 4 µM.

With `COc1ccc2nc3cc(Cl)ccc3c(NCCCN(CCCNc3c4ccc(Cl)cc4nc4ccc(OC)cc34)Cc3ccc(F)cc3F)c2c1`, the IC50 with MOLT-4 was below 10 nM; in series [1], 780 nM; in series [2], 230 nM; with COLO 205 [3], 770 nM.

Consider `CCN(CCCNc1c2ccc(Cl)cc2nc2ccc(OC)cc12)CCCNc1c2ccc(Cl)cc2nc2ccc(OC)cc12`, for which the MTD in series [4] turned out to be 30 mg/kg. Moreover, the IC50 is below 20 nM with MOLT-4, 7310 nM in series [1], 5330 nM in series [2] and 90 nM in the series on COLO 205 [3].

For the compound `COc1ccc2nc3cc(Cl)ccc3c(NCCCN(CCCNc3c4ccc(Cl)cc4nc4ccc(OC)cc34)Cc3ccc(Cl)cc3)c2c1`, the IC50 in the series with MOLT-4 is below 10 nM; in series [1], 530 nM; in series [2] it was 580 nM; in the series on COLO 205 [3], 200 nM.

For `COc1ccc2nc3cc(Cl)ccc3c(NCCCN(CCCNc3c4ccc(Cl)cc4nc4ccc(OC)cc34)Cc3ccco3)c2c1`, the IC50 in the series with MOLT-4 is below 10 nM; in series [1], 840 nM; in series [2], 610 nM; with COLO 205 [3], 240 nM. The SC50 in the series with Nucleic Acid worked out at 2 µM.

Consider `COc1ccc2nc3cc(Cl)ccc3c(NCCCN(CCCNc3c4ccc(Cl)cc4nc4ccc(OC)cc34)CC(O)CO)c2c1` (stereo not given), for which the IC50 in the series with MOLT-4 was below 10 nM; in series [1], 1290 nM; in series [2], 1720 nM; in the series on COLO 205 [3], 130 nM.

In the case of `COc1ccc2nc3cc(Cl)ccc3c(NCCCN(CCCNc3c4ccc(Cl)cc4nc4ccc(OC)cc34)Cc3ccccc3OC)c2c1`, the IC50 in the series with MOLT-4 was below 10 nM; in series [1], 710 nM; in series [2], 930 nM; in the series on COLO 205 [3], 3610 nM. In the series on Nucleic Acid, the SC50 was determined as 2 µM.

With `COc1cccc(CN(CCCNc2c3ccc(Cl)cc3nc3ccc(OC)cc23)CCCNc2c3ccc(Cl)cc3nc3ccc(OC)cc23)c1`, the IC50 in the series with MOLT-4 was below 10 nM; in series [1], 680 nM; in series [2] it was 420 nM; in the series with COLO 205 [3], 350 nM. Besides, the SC50 with Nucleic Acid was found to be 2 µM.
